# Results from article PMC11945486, “TAS1R2/TAS1R3 Single-Nucleotide Polymorphisms Affect Sweet Taste Receptor Activation by Sweeteners: The SWEET Project” (Nutrients, 2025).
# No end group written: not given here.
# T1: human TAS1R2-R317G/TAS1R3-WT (Homo sapiens, UniProt Q7RTX0+Q8TE23, R317G)
# T1 construct: expressed in transfected cells; host or cells: HEK293T-Gα16gust44
# T1 sequence (Q8TE23 20-839 R317G): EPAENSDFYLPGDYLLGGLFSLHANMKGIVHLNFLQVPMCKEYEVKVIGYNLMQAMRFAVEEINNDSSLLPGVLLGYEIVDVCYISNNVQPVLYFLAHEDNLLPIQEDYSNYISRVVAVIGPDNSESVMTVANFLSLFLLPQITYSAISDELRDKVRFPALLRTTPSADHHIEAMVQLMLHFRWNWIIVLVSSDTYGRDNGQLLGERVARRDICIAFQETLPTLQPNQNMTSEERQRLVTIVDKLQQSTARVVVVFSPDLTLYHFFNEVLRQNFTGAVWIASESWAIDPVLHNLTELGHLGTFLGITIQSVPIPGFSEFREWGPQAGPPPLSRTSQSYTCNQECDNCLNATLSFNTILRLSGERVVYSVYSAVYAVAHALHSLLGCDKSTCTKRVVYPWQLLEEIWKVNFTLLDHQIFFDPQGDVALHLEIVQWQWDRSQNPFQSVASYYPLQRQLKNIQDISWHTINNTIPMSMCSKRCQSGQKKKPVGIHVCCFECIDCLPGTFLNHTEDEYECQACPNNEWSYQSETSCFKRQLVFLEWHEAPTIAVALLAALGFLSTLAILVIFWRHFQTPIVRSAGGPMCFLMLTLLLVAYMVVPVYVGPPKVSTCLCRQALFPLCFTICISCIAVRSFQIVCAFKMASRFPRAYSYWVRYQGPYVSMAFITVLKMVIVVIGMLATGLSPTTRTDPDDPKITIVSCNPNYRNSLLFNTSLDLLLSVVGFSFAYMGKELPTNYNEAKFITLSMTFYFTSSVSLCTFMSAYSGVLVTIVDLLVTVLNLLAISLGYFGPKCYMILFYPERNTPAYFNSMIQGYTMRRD
# T1 sequence (Q7RTX0 21-852): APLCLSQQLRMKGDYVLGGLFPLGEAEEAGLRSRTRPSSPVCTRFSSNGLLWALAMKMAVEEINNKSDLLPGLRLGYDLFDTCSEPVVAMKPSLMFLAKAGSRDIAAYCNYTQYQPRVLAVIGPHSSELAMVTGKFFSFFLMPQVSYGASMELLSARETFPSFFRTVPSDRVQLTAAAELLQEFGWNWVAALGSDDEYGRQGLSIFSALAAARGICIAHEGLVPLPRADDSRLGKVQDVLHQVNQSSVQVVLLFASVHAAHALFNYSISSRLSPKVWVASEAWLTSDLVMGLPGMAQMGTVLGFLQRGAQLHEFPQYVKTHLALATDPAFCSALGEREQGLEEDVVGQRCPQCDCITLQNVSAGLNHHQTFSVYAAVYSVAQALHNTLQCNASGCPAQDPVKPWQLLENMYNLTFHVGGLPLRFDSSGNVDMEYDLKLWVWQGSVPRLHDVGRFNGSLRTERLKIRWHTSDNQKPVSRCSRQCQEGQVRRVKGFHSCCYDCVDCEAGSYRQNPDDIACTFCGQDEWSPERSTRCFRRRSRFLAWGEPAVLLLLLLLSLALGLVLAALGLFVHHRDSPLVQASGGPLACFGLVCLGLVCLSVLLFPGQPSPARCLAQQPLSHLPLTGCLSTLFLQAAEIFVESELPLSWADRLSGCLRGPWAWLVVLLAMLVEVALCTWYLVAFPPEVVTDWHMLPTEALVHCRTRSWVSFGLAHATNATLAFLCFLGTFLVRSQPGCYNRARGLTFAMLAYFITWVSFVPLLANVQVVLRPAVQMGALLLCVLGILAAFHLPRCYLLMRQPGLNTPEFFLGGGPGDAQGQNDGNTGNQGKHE
# B1: thaumatin (protein)
# chain: ATFEIVNRCSYTVWAAASKGDAALDAGGRQLNSGESWTINVEPGTKGGKIWARTDCYFDDSGSGICKTGDCGGLLRCKRFGRPPTTLAEFSLNQYGKDYIDISNIKGFNVPMDFSPTTRGCRGVRCAADIVGQCPAKLKAPGGGCNDACTVFQTSEYCCTTGKCGPTEYSRFFKRLCPDAFSYVLDKPTTVTCPGSSNYRVTFCPTA
# modifications: Eight disulfides
# notes: sweet-tasting plant protein, E957
# Molecular target: T1, human TAS1R2-R317G/TAS1R3-WT
# Assay: Calcium mobilisation assay, TAS1R2 variant R317G with TAS1R3-WT
# Type: cell-based
# Conditions: for Max ΔF/F0: maximal signal amplitude
# From the text: The coding sequences for TAS1R2 and TAS1R3 were commercially synthesised, and the human codon was optimised for expression in human cells. The coding sequences of human TAS1R2 and TAS1R3 were subcloned and inserted into the mammalian expression vectors pcDNA6/myc-HisA and pcDNA4/myc-HisA (Invitrogen; Thermo Fisher Scientific; Illkirch, France) between the EcoRI and NotI restriction sites, generating the plasmids pcDNA6-TAS1R2 and pcDNA4-TAS1R3, respectively. To increase protein expression in mammalian cells, an upstream start codon was used, which was a sequence called MAX, corresponding to the QBI SP163 element also described in pcDNA4-HisMax (Invitrogen; Thermo Fisher Scientific; Illkirch, France). To measure the expression level of the receptor by immunohistochemistry, we used the FLAG sequence ([…]) in the C-terminal position, which encodes the FLAG tag epitope. SNP variants of TAS1R2 and TAS1R3 were constructed based on […], respectively, using site-directed mutagenesis (Genewiz; Leipzig, Germany).
# The HEK293T cells were kindly provided by Jay P. Slack (Givaudan Flavors Corporation; Cincinnati, OH, USA). HEK293T cells stably transfected with Gα16gust44 [43, 67] were seeded in poly-D-lysine-coated clear-bottom black 96-well plates (0.35 × 10^5 cells/well) in high-glucose DMEM supplemented with 2 mM GlutaMAX, 10% dialysed foetal bovine serum with penicillin/streptomycin and G418 (400 μg/mL) at 37 °C and 6.3% CO2 in a humidified atmosphere as previously reported. […] As a negative control, HEK293T cells were mock-transfected with the empty expression vector. After a further 24 h of incubation, the HEK293T cells were washed with C1 buffer (130 mM NaCl, 5 mM KCl, 10 mM HEPES pH 7.4 and 2 mM CaCl2). The 96-well plates containing the cells were then stimulated with sweet-tasting compounds. […] Different concentration ranges were tested depending on the sweet compound injected. The Ca^2+ changes were expressed as fractional changes in fluorescent light intensity: ΔF/F = (F − F0)/F0, where F was the fluorescent light intensity at each point, and F0 was the value of emitted fluorescent light prior to stimulus application. To calculate dose–response relationships, the changes in fluorescence upon stimulus application were averaged, mock-subtracted and baseline-corrected. The dose–response data obtained were adjusted using a 4-parameter logistic equation. The half-maximal effective concentrations (EC50 values) and maximal signal amplitudes were calculated using SigmaPlot software (version 15.0) (Systat Software; San Jose, CA, USA).
# For in vitro calcium mobilisation assay performed on hTAS1R2-SNPs, hTAS1R3-SNPs and mTAS1R3-I60T, 6 to 7 concentrations were tested for each sweet compound, plus buffer alone. All concentration–receptor combinations were measured in duplicate, and each experiment was repeated at least 4 times (8 wells/concentration). Results were expressed for each concentration as ΔF/F mean ± SEM and represented as dose–response curves.
Molecule,EC50 [µM],R1 = Variant EC50/WT EC50,Max ΔF/F0
"CC1=CC(=O)NS(=O)(=O)O1 [Acesulfame K, acesulfame K]",465 ± 55,0.7,0.46 ± 0.02
"O=S(=O)(O)NC1CCCCC1 [Cyclamate, cyclamate]",2160 ± 44,–,–
"C[C@H](CC[C@@H](O[C@@H]1O[C@H](CO[C@@H]2O[C@H](CO)[C@@H](O)[C@H](O)[C@H]2O)[C@@H](O)[C@H](O)[C@H]1O[C@@H]1O[C@H](CO)[C@@H](O)[C@H](O)[C@H]1O)C(C)(C)O)[C@H]1CC[C@@]2(C)[C@@H]3CC=C4[C@@H](CC[C@H](O[C@@H]5O[C@H](CO[C@@H]6O[C@H](CO)[C@@H](O)[C@H](O)[C@H]6O)[C@@H](O)[C@H](O)[C@H]5O)C4(C)C)[C@]3(C)[C@H](O)C[C@]12C [Mogroside V, mogroside V]",18.4 ± 1,1.1,1.34 ± 0.03
"COc1ccc(CCC(=O)c2c(O)cc(O[C@@H]3O[C@H](CO)[C@@H](O)[C@H](O)[C@H]3O[C@@H]3O[C@@H](C)[C@H](O)[C@@H](O)[C@H]3O)cc2O)cc1O [NHDC, neohesperidin dihydrochalcone]",97.1 ± 5,1.3,0.85 ± 0.02
COC(=O)[C@H](Cc1ccccc1)NC(=O)[C@H](CC(=O)O)NCCC(C)(C)C [Neotame],0.73 ± 0.13,0.9,0.56 ± 0.03
"C=C(C)[C@@H]1CC=C(/C=N/O)CC1 [Perillartine, perillartine]",20.7 ± 0.6,1.2,1.53 ± 0.03
"C=C1C[C@@]23CC[C@H]4[C@@](C)(CCC[C@@]4(C)C(=O)O[C@@H]4O[C@H](CO)[C@@H](O)[C@H](O[C@@H]5O[C@H](CO)[C@@H](O)[C@H](O)[C@H]5O)[C@H]4O[C@@H]4O[C@H](CO)[C@@H](O)[C@H](O)[C@H]4O)[C@@H]2CC[C@]1(O[C@@H]1O[C@H](CO)[C@@H](O)[C@H](O[C@@H]2O[C@H](CO)[C@@H](O)[C@H](O)[C@H]2O)[C@H]1O[C@@H]1O[C@H](CO)[C@@H](O)[C@H](O)[C@H]1O)C3 [Rebaudioside M, rebaudioside M]",20.4 ± 0.4,1.2,1.23 ± 0.01
OC[C@H]1O[C@H](O[C@]2(CCl)O[C@H](CCl)[C@@H](O)[C@@H]2O)[C@H](O)[C@@H](O)[C@H]1Cl [Sucralose],62 ± 11,0.7,0.80 ± 0.05
"brazzein (QDKCKKVYENYPVSKCQLANQCNYDCKLDKHARSGECFYDEKRNLQCICDYCEY; ends and bridges not checked; cysteine pairing not given here; UniProt P56552 1-54, looked up) [sweet-tasting protein obtained by recombinant production using the yeast Pichia pastoris]",–,1.3,1.18 ± 0.03
thaumatin,–,1.4,1.16 ± 0.02
B1,10.9 ± 0.3,–,–
